Results taken from patent publication US11673892B2, “Bicyclic compounds for use as RIP1 kinase inhibitors” (Genentech, Inc., priority 2017, dated 2023).

target: T1, human RIP1 kinase domain (2-375) (Homo sapiens, UniProt Q13546); assay: RIP1 kinase inhibition biochemical assay (Transcreener ADP, fluorescence polarization); conditions: Ki app (Morrison tight-binding fit); 50 nM enzyme, 50 uM ATP, 2 hours incubation
T1 construct: Purified human RIP1 kinase domain (2-375) (50 nM); made in house; host or cells: baculovirus-infected insect cells
T1 sequence (Q13546 2-375): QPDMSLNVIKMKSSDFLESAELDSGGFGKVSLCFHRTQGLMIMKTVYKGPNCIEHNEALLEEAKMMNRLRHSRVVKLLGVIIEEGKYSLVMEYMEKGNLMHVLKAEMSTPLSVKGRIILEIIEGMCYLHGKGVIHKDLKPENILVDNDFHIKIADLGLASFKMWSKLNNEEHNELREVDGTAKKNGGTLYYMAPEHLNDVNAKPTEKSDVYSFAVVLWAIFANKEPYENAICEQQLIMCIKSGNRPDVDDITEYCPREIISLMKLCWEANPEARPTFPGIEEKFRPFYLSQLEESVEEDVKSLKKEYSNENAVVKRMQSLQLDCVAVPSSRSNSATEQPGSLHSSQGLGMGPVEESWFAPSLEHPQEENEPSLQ
How it was run: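 Baculovirus-expressed human RIP1 kinase domain (2-375), 50 nM, incubated 2 h with compounds in pH 7.5 Hepes, 30 mM MgCl2, 50 uM ATP, 0.5% DMSO. ADP detected by Transcreener fluorescence-polarization tracer displacement; Ki^app from Morrison tight-binding fit.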

SMILES | Ki [nM]
CC1(C)CC1c1nc2n(n1)[C@H](c1ccccc1)C[C@@H]2F (stereo partly drawn) [Example 30, (5S,7S)-2-(2,2-dimethylcyclopropyl)-7-fluoro-5-phenyl-6,7-dihydro-H-pyrrolo[1,2-b][1,2,4]triazole] | 81
CC(C)OCc1nc2n(n1)[C@H](c1ccccc1)C[C@@H]2F [Example 37, (5S,7S)-7-fluoro-2-(isopropoxymethyl)-5-phenyl-6,7-dihydro-5H-pyrrolo[1,2-b][1,2,4]triazole] | 3000
O=Cc1cnn(-c2nc3n(n2)[C@H](c2ccccc2)C[C@@H]3F)c1 [Example 40, 1-[(5S,7S)-7-fluoro-5-phenyl-6,7-dihydro-5H-pyrrolo[1,2-b][1,2,4]triazol-2-yl]pyrazole-4-carbaldehyde] | 52
F[C@H]1C[C@@H](c2ccccc2)n2nc(C#CC3CC3)nc21 [Example 43, (5S,7S)-2-(2-cyclopropylethynyl)-7-fluoro-5-phenyl-6,7-dihydro-5H-pyrrolo[1,2-b][1,2,4]triazole] | 450
N#CC(F)c1nc2n(n1)[C@H](c1ccccc1)C[C@@H]2F (stereo partly drawn) [Example 48, 2-fluoro-2-[(5S,7S)-7-fluoro-5-phenyl-6,7-dihydro-5H-pyrrolo[1,2-b][1,2,4]triazol-2-yl]acetonitrile] | 910
F[C@H]1C[C@@H](c2ccccc2)n2nc(-n3cc(Cl)cn3)nc21 [Example 60, (5S,7S)-2-(4-chloropyrazol-1-yl)-7-fluoro-phenyl-6,7-dihydro-5H-pyrrolo[1,2-b][1,2,4]triazole] | 4.5
OC(c1nc2n(n1)[C@H](c1ccccc1)C[C@@H]2F)[C@H]1C[C@@H]1F (stereo partly drawn) [Example 106, [(1R,2S)-2-fluorocyclopropyl]-[(5S,7S)-7-fluoro-5-phenyl-6,7-dihydro-5H-pyrrolo[1,2-b][1,2,4]triazol-2-yl]methanol] | 110
Fc1ccccc1[C@@H]1C[C@H](F)c2nc(CC3CC3(F)F)nn21 (stereo partly drawn) [Example 112, (5S,7S)-2-[(2,2-difluorocyclopropyl)methyl]-7-fluoro-5-(2-fluorophenyl)-6,7-dihydro-5H-pyrrolo[1,2-b][1,2,4]triazole] | 4.5
CC(F)(F)C(O)c1nc2n(n1)[C@H](c1ccccc1)C[C@@H]2F (stereo partly drawn) [Example 117, 2,2-difluoro-1-[(5S,7S)-7-fluoro-5-phenyl-6,7-dihydro-5H-pyrrolo[1,2-b][1,2,4]triazol-2-yl]propan-1-ol] | 420

Continued by falling Ki, values first:

Ki [nM] | SMILES
890 | CC#Cc1nc2n(n1)[C@H](c1ccccc1)C[C@@H]2F [Example 44, (5S,7S)-7-fluoro-5-phenyl-2-prop-1-ynyl-6,7-dihydro-5H-pyrrolo[1,2-b][1,2,4]triazole]
120 | OC(c1nc2n(n1)[C@H](c1ccccc1)C[C@@H]2F)[C@@H]1C[C@H]1F (stereo partly drawn) [Example 108, [(1S,2R)-2-fluorocyclopropyl]-[(5S,7S)-7-fluoro-5-phenyl-6,7-dihydro-5H-pyrrolo[1,2-b][1,2,4]triazol-2-yl]methanol]
49 | CCc1nc2n(n1)[C@H](c1ccccc1)C[C@@H]2F [Example 36, (5S,7S)-2-ethyl-7-fluoro-5-phenyl-6,7-dihydro-5H-pyrrolo[1,2-b][1,2,4]triazole]
34 | F[C@H]1C[C@@H](c2ccccc2)n2nc(C3CC3C(F)(F)F)nc21 (stereo partly drawn) [Example 33, (5S,7S)-7-fluoro-5-phenyl-2-(2-(trifluoromethyl)cyclopropyl)-6,7-dihydro-5H-pyrrolo[1,2-b][1,2,4]triazole]
9 | [2H]C(c1nc2n(n1)[C@H](c1ccccc1)C[C@@H]2F)C1CC1 (stereo partly drawn) [Example 101, (5S,7S)-2-[cyclopropyl(deuterio)methyl]-7-fluoro-5-phenyl-6,7-dihydro-5H-pyrrolo[1,2-b][1,2,4]triazole]
6 | F[C@H]1C[C@@H](c2ccccc2)n2nc(C(F)(F)C34CC(C3)C4)nc21 [Example 42, (5S,7S)-2-[1-bicyclo[1.1.1]pentanyl(difluoro)methyl]-7-fluoro-5-phenyl-6,7-dihydro-5H-pyrrolo[1,2-b][1,2,4]triazole]
